# “And” between values parts separate entries of the source, which are not always exact repeats. Identical values can stand only once.
# Assays:
# [1] = tested on: Pseudomonas infected lungs; assay: rat lung infection, histopathology of lung samples; assay type: in vivo; settings: for Consol Score / Inflam Score: 0=normal to 4 very severe
# Procedure: A solution form nanocrystalline silver coated dressings (AgHDPE) from Example 1 was prepared by sparging CO2 through 1000 ml of reverse osmosis water using commercial CO2 Soda Syphon Charger. […] At this point, approximately 333 ml of the carbonated water was decanted into a plastic bottle and 333 square inches of nanocrystalline silver-coated net was added to the water. The nanocrystalline silver-coated net and water were placed in 37° C. shaker incubator and shaken at 180 RPM for 30 minutes to elevate the pH to approximately 5.8. The solution was then transferred to a beaker and stirred vigorously for 2 minutes to raise the pH to approximately at 7.3. The dissolution solution was transferred to a commercial nebulizer which was connected to a medical air cylinder with a flow rate of approx. 20 L/min. The outflow of the nebulizer was connected to a animal chamber housing the rats to be dosed. Only the “test” rats (12 randomly assigned animals) received the dosing. The rats received two —½ hour aerosol administrations of the test solution on the day of infection. Thereafter, the test rats were dosed 3 times per day for an additional one and a half days.
# The bacteria used for infection of these animals were Pseudomonas aeruginosa strain 5588. The dose was previously titrated to ascertain that a dose of up to 10^9 CFU was not lethal for the animals. The bacteria were grown overnight in Tryptic soy broth, washed once in sterile PBS and resuspend in sterile PBS. The final concentration of the inoculum was 4×10^9 CFU/ml.
# The rats were anesthetized by inhalation of 2% halothane. A 400 microliter volume of bacterial suspension was intratracheally administered in the bronchi of each rat. This was performed non-surgically on intubated animals.
# Histopathology was scored (0-4) based upon the degree of consolidation and inflammation (neutrophil infiltration). The entire right middle lobes of all rats were collected for histopathology. As whole lobes were selected there was no bias toward any sample. All samples were fixed in neutral buffered formalin at the time the lung was removed from the thorax. It was fixed overnight, dehydrated and embedded in was. Sections were obtained which were hydrated and stained with haematoxylin and eosin.
# All sections were examined by a veterinary pathologist who was blinded to the treatment groups, until after the samples were scored and comments were provided. (0=normal, 1=slight, 2 moderate, 3 severe, 4 very severe).
# [2] = tested on: Pseudomonas infected lungs; assay: rat lung infection, gross lung score; assay type: in vivo; settings: individual animals, absent=0, mild=1, moderate=2, severe=3
# Procedure: A solution form nanocrystalline silver coated dressings (AgHDPE) from Example 1 was prepared by sparging CO2 through 1000 ml of reverse osmosis water using commercial CO2 Soda Syphon Charger. […] At this point, approximately 333 ml of the carbonated water was decanted into a plastic bottle and 333 square inches of nanocrystalline silver-coated net was added to the water. The nanocrystalline silver-coated net and water were placed in 37° C. shaker incubator and shaken at 180 RPM for 30 minutes to elevate the pH to approximately 5.8. The solution was then transferred to a beaker and stirred vigorously for 2 minutes to raise the pH to approximately at 7.3. The dissolution solution was transferred to a commercial nebulizer which was connected to a medical air cylinder with a flow rate of approx. 20 L/min. The outflow of the nebulizer was connected to a animal chamber housing the rats to be dosed. Only the “test” rats (12 randomly assigned animals) received the dosing. The rats received two —½ hour aerosol administrations of the test solution on the day of infection. […]
# On each day, six rats of each group of animals were sacrificed. […] Lungs were grossly scored (absent=0, mild=1, moderate=2, and severe=3) based on the degree and involvement of consolidation, hemorrhage, edema and necrosis based upon gross observation.
# Pseudomonas aeruginosa = assay: aerosol of silver solutions on streaked agar plates; assay type: cell-based; set-up: key to Growth at 16 h (0−++++) / Growth at 48 h (0−++++): (0−++++); (0−++++); (0−++++); (0−++++); settings: for Growth at 16 h (0−++++) / Growth at 48 h (0−++++): aerosol 53 minutes; for Viable 4 h / Viable 16 h: regrowth in Tryptic soy broth
# Procedure: (§1) The solutions were in turn placed in an ultrasonic nebulizer that created small droplets containing dissolved and suspended parts of the silver solution. The output from the nebulizer was directed into a chamber made from a stainless steel frame and base. Petri dishes containing Mueller Hinton agar streaked with 4 h old cultures of Pseudomonas aeruginosa and Staphylococcus aureus, were exposed to the silver solution aerosols and the silver nitrate aerosols.
# (§2) The method used for the current tests was the mechanical method in the form of an ultrasonic nebulizer. For convenience an ultrasonic humidifier was used. The liquid containing the dissolved and suspended silver from the dressing of Example 1 was placed in the water reservoir of the humidifier. When power was applied to the humidifier aerosol droplets of dissolved and suspended silver were generated and flowed from the output nozzle.
# (§3) A test chamber was constructed using a stainless steel frame with a transparent plastic covering. The frame was placed on a stainless steel base plate. The output nozzle from the humidifier was modified so that the aerosol could be directed into the chamber at a height of approximately 30 cm from the base. The plates and other test samples were placed on the stainless steel plate and exposed to the aerosol for a prescribed length of time.
# (§4) Petri dishes, containing Mueller Hinton agar, were streaked with 4 h old cultures of Pseudomonas aeruginosa or Staphylococcus aureus. The plates were then weighed and their exposed outer surfaces were coated with Parafilm to prevent condensation from occurring on these surfaces. These plates were placed in the aerosol chamber uncovered. The ultrasonic nebulizer was then started and run for 53 minutes. The plates were then removed from the chamber, the plastic was removed and the dishes re-weighed so that the amount of moisture loss/gain could be determined.
# (§5) The plates were then placed in a 35° C. incubator for 16 h. After incubation the pattern and amount of growth was assessed on the plates for both organisms.
# (§6) Three of the six plates made for each organism were tested to determine if the antimicrobial effect was cidal or static in nature. This was accomplished by rinsing or placing a piece of the clear section of agar in the Petri dish plates into Tryptic soy broth in a test tube and incubating for 4 h or 16 h. If the medium turned turbid in 4 h it would indicate that the antimicrobial affect was bacteriostatic in nature. If the organisms took more than 16 h to grow, as indicated by turbidity, it was considered an indication that both static and cidal effects occurred. If no growth occurred the effect was bactericidal.
# (§7) The solutions were in turn placed in an ultrasonic nebulizer that created small droplets containing dissolved and suspended parts of the solution of nanocrystalline noble metal-containing material. The output from the nebulizer was directed into a chamber made from a stainless steel frame and base. Petri dishes containing Mueller Hinton agar streaked with 4 h old cultures of Pseudomonas aerugiona and Staphylococcus aureus were exposed to nanocrystalline noble metal aerosols and the silver nitrate aerosols.
# (§8) The method used to create an aerosol for these tests was the mechanical method in the form of an ultrasonic nebulizer. For convenience, an ultrasonic humidifier was used. The liquid containing the dissolved and suspended antimicrobial metal-containing material with atomic disorder was placed in the water reservoir of the humidifier. When power was applied to the humidifier, aerosol droplets of dissolved and suspended antimicrobial metal-containing material with atomic disorder were generated and flowed from the output nozzle.
# (§9) A test chamber was constructed using a stainless steel frame with a transparent plastic covering. The frame was placed on a stainless steel plate.
# Staphylococcus aureus = assay: as above; assay type: cell-based; set-up: key to Growth at 16 h (0−++++) / Growth at 48 h (0−++++): (0−++++); (0−++++); (0−++++); (0−++++); settings: for Growth at 16 h (0−++++) / Growth at 48 h (0−++++): aerosol 53 minutes
# Procedure: as §1, §2, §3, §4, §5, §6, §7, §8, §9
# [3] = tested on: Pseudomonas aeruginosa strain 5588 infected lungs; assay: nebulized forms of silver in rats, gross lung score; assay type: in vivo, rat; settings: after 24 h, nebulized solutions (400 ppm; colloidal silver 20 ppm)
# Procedure: A solution was prepared by sparging CO2 through 1000 ml of reverse osmosis water using commercial CO2 Soda Syphon Charger. This process results in the pH of the water dropping to about 4. At this point, approximately 333 ml of the carbonated water was decanted into a plastic bottle and 333 square inches of nanocrystalline silver-coated net was added to the water. The nanocrystalline silver-coated net and water were placed in 37° C. shaker incubator and shaken at 180 RPM for 30 minutes to elevate the pH to approximately 5.8. The solution was then transferred to a beaker and stirred vigorously for 2 minutes to raise the pH to approximately at 7.3.
# A colloidal silver solution (20 ppm) in was obtained from a commercial source.
# The dissolution solutions were transferred to commercial nebulizers which were connected to a Medical air cylinder with a flow rate of approx. 20 L/min. The outflows of the nebulizers were connected to an animal chamber housing the rats to be dosed. All rats (40 randomly assigned animals) received the dosing. The rats received two —½ hour aerosol administrations of the test solutions on the day of infection. […]
# All rats of each group of animals were sacrificed after 24 h. […] Lungs were grossly scored (absent=0, mild=1, moderate=2, and severe=3) based on the degree of involvement of consolidation, hemorrhage, edema and necrosis based upon gross observation.
# [4] = Solutions 1 and 3: Ag 85 (dressing) / 99 (AgNO3) μg/ml
# [5] = Solutions 1 and 3: Ag 85 / 99 μg/ml
# [6] = Solutions 2 and 4: Ag 370 (dressing) / 300 (AgNO3) μg/ml
# [7] = Solutions 2 and 4: Ag 370 / 300 μg/ml
# [8] = Solutions 1 and 3: Ag 85 / 99 μg/ml, regrowth in Tryptic soy broth
smiles,measurement,setting,value
NC[C@H]1O[C@H](O[C@H]2[C@H](O)[C@@H](O[C@H]3O[C@H](CO)[C@@H](O)[C@H](N)[C@H]3O)[C@H](N)C[C@@H]2N)[C@H](N)C[C@@H]1O [Tobramycin],Comments (histopathology),[1]; Time 24,Severe infiltration of PMNs into interstitial spaces.
same,Consol Score,[1]; Time 24,3
same,Inflam Score,[1]; Time 24,3
same,Comments (histopathology),[1]; Time 48,Severe infiltration of PMNs into interstitial spaces.
same,Involvement of sample,[1]; Time 48,in affected areas. Involvement of 70% of sample.
same,Consol Score,[1]; Time 48,3
same,Inflam Score,[1]; Time 48,3
same,gross lung score,[2]; 24 h,2 (3×) and 3 (2×) and 1
same,gross lung score,[2]; 48 h,1 (4×) and 2 and Dead
"O=[N+]([O-])[O-].[Ag+] [AgNO3, silver nitrate]",Growth at 16 h (0−++++),Pseudomonas aeruginosa; [4],0
same,Growth at 48 h (0−++++),Pseudomonas aeruginosa; [5],0
same,Viable 4 h,Pseudomonas aeruginosa; [5],No
same,Viable 16 h,Pseudomonas aeruginosa; [5],No
same,Viable 16 h,"Pseudomonas aeruginosa; Solutions 1 and 3: Ag 85 / 99 μg/ml, listed as AgNo3",Yes
same,Growth at 16 h (0−++++),Pseudomonas aeruginosa; [6],0
same,Growth at 48 h (0−++++),Pseudomonas aeruginosa; [7],0
same,Viable 4 h,Pseudomonas aeruginosa; [7],No
same,Viable 16 h,Pseudomonas aeruginosa; [7],No
same,Growth at 16 h (0−++++),Staphylococcus aureus; [4],0
same,Growth at 16 h (0−++++),"Staphylococcus aureus; Solutions 1 and 3: Ag 85 (dressing) / 99 (AgNO3) μg/ml, listed as AgNo3",++++
same,Growth at 48 h (0−++++),Staphylococcus aureus; [5],++++
same,Viable 4 h,Staphylococcus aureus; [8],No
same,Viable 16 h,Staphylococcus aureus; [8],Yes
same,Viable 4 h,"Staphylococcus aureus; Solutions 1 and 3: Ag 85 / 99 μg/ml, regrowth in Tryptic soy broth, listed as AgNo3",Yes
same,Growth at 16 h (0−++++),Staphylococcus aureus; [6],0
same,Growth at 48 h (0−++++),Staphylococcus aureus; [7],+++
same,Viable 4 h,"Staphylococcus aureus; Solutions 2 and 4: Ag 370 / 300 μg/ml, regrowth in Tryptic soy broth",No
same,gross score of lungs,[3],moderately to severely inflamed

# From US7427416B2, “Methods of treating conditions using metal-containing materials” (Nucryst Pharmaceuticals Corp., priority 2000, dated 2008)
